# According to paper PMC9917201, “Enhanced Antibacterial Activity of Substituted Derivatives of NCR169C Peptide” (International Journal of Molecular Sciences, 2023):
# Where two headings read alike, the source gives them in different places. Non-standard residues stand in square brackets, D forms with d. Residues, ends and D or L forms follow the SMILES beside them. ξ: configuration not given here. Trp(5-F) = N[C@@H](Cc1c[nH]c2ccc(F)cc12)C(=O)O; ξTrp(5-Me) = Cc1ccc2[nH]cc(CC(N)C(=O)O)c2c1
# Assays:
# Format in all cases: cell-based
# [1] = system: Listeria monocytogenes (ATCC 19111); settings: ATCC 19111, 3 h, pH 7.4
# Source text: (§1) The bacterial strains for the antimicrobial assay were obtained from the ATCC (American Type Culture Collection, Manassas, VA, USA) and NCTC (National Collection of Type Cultures, Salisbury, UK). Gram-negative strains were Pseudomonas aeruginosa (ATCC 27853), Escherichia coli (ATCC 8739, ATCC 35218, and ATCC 25922), Salmonella enterica (ATCC 13076), Klebsiella pneumoniae (NCTC 13440), Acinetobacter baumannii (ATCC 17978) and the Gram-positive strains were Enterococcus faecalis (ATCC 29212), Listeria monocytogenes (ATCC 19111), and Staphylococcus aureus (HNCMO112011 and ATCC 25923).
# (§2) Determination of antibacterial activity for the peptides was carried out by utilizing a minimum bactericidal concentration (MBC) bioassay. Synthesized peptides were dissolved in sterile water and used from 25 to 0.125 μM in 2-fold dilution series and incubated with ~10^7 log phase bacteria in Potassium-Phosphate Buffer (PPB, pH: 7.4) for three hours as described earlier. After that, 5 μl of each sample was placed on LB agar and the growth of bacteria was monitored after overnight incubation at 37 °C. The lowest concentration of the antimicrobial agents that completely eliminated viable bacteria was considered the minimal bactericidal concentration (MBC).
# [2] = system: Escherichia coli (ATCC 8739); settings: ATCC 8739, 3 h, pH 7.4
# Source text: as §1, §2
# [3] = system: Salmonella enterica (ATCC 13076); settings: ATCC 13076, 3 h, pH 7.4
# Source text: as §1, §2
# [4] = system: Klebsiella pneumoniae (NCTC 13440); settings: NCTC 13440, 3 h, pH 7.4
# Source text: as §1, §2
# [5] = system: Acinetobacter baumannii (ATCC 17978)
# Source text: as §1, §2
# [6] = system: Staphylococcus aureus (HNCMO112011); settings: HNCMO112011, 3 h, pH 7.4
# Source text: as §1, §2
# [7] = system: Enterococcus faecalis (ATCC 29212)
# Source text: as §1, §2
# [8] = system: Pseudomonas aeruginosa (ATCC 27853); settings: ATCC 27853, 3 h, pH 7.4
# Source text: as §1, §2
# [9] = Acinetobacter baumannii ATCC 17978, ~10^7 log phase bacteria, 3 h in PPB pH 7.4, peptide 25 to 0.125 μM 2-fold series, plated on LB agar, overnight 37 °C
Compound,Minimal bactericidal concentration (MBC) L. m. [1] [µM],Minimal bactericidal concentration (MBC) E. c. [2] [µM],Minimal bactericidal concentration (MBC) S. e. [3] [µM],Minimal bactericidal concentration (MBC) K. p. [4] [µM],"Minimal bactericidal concentration (MBC) A. b. [5, 9] [µM]",Minimal bactericidal concentration (MBC) S. a. [6] [µM],"Minimal bactericidal concentration (MBC) E. f. ([7]; ATCC 29212, 3 h, pH 7.4) [µM]",Minimal bactericidal concentration (MBC) P. a. [8] [µM],"Minimal bactericidal concentration (MBC) A. b. ([5]; ATCC 17978, 3 h, pH 7.4) [µM]","Minimal bactericidal concentration (MBC) E. f. ([7]; Enterococcus faecalis ATCC 29212, ~10^7 log phase bacteria, 3 h in potassium-phosphate buffer (PPB) pH 7.4, peptide 25 to 0.125 μM 2-fold series, 5 μl on LB agar, overnight 37 °C) [µM]"
"CC[C@H](C)[C@H](NC(=O)[C@H](CCCCN)NC(=O)[C@H](Cc1ccccc1)NC(=O)[C@H](CC(C)C)NC(=O)[C@@H]1CCCN1C(=O)[C@H](CCCCN)NC(=O)[C@H](CCCCN)NC(=O)[C@H](CO)NC(=O)[C@@H](N)CCCCN)C(=O)NC(Cc1c[nH]c2ccc(C)cc12)C(=O)N[C@@H](CCCCN)C(=O)N[C@@H](CO)C(=O)N[C@H](C(=O)N[C@@H](CCC(=O)O)C(=O)N[C@@H](CC(N)=O)C(=O)N[C@H](C(=O)N[C@@H](CO)C(=O)N[C@H](C(=O)N[C@@H](CC(C)C)C(=O)N[C@@H](Cc1c[nH]c2ccccc12)C(=O)N[C@@H](Cc1ccc(O)cc1)C(=O)N[C@@H](CCCCN)C(N)=O)C(C)C)C(C)C)C(C)C (some centres unmarked) [NCR169C17–38C12,17/S-10W^5-Me II] (H-KSKKPLFKI[ξTrp(5-Me)]KSVENVSVLWYK-NH2; N-terminus assumed)",3.1,3.1,3.1,6.3,3.1,3.1,3.1,3.1,,
"CC[C@H](C)[C@H](NC(=O)[C@H](CCCCN)NC(=O)[C@H](Cc1ccccc1)NC(=O)[C@H](CC(C)C)NC(=O)[C@@H]1CCCN1C(=O)[C@H](CCCCN)NC(=O)[C@H](CCCCN)NC(=O)[C@H](CO)NC(=O)[C@@H](N)CCCCN)C(=O)NC(Cc1c[nH]c2ccc(C)cc12)C(=O)N[C@@H](CCCCN)C(=O)N[C@@H](CO)C(=O)N[C@H](C(=O)N[C@@H](CCC(=O)O)C(=O)N[C@@H](CC(N)=O)C(=O)N[C@H](C(=O)N[C@@H](CO)C(=O)N[C@H](C(=O)N[C@@H](CC(C)C)C(=O)N[C@@H](Cc1c[nH]c2ccccc12)C(=O)N[C@@H](Cc1ccc(O)cc1)C(=O)N[C@@H](CCCCN)C(N)=O)C(C)C)C(C)C)C(C)C (some centres unmarked) [NCR169C17–38C12,17/S-10W^5-Me I] (H-KSKKPLFKI[ξTrp(5-Me)]KSVENVSVLWYK-NH2; N-terminus assumed)",3.1,3.1,3.1,6.3,6.3,3.1,3.1,3.1,,
"CC[C@H](C)[C@H](NC(=O)[C@H](CCCCN)NC(=O)[C@H](Cc1ccccc1)NC(=O)[C@H](CC(C)C)NC(=O)[C@@H]1CCCN1C(=O)[C@H](CCCCN)NC(=O)[C@H](CCCCN)NC(=O)[C@H](CO)NC(=O)[C@@H](N)CCCCN)C(=O)N[C@@H](Cc1c[nH]c2ccccc12)C(=O)N[C@@H](CCCCN)C(=O)N[C@@H](CO)C(=O)N[C@H](C(=O)N[C@@H](CCC(=O)O)C(=O)N[C@@H](CC(N)=O)C(=O)N[C@H](C(=O)N[C@@H](CO)C(=O)N[C@H](C(=O)N[C@@H](CC(C)C)C(=O)N[C@@H](Cc1c[nH]c2ccc(F)cc12)C(=O)N[C@@H](Cc1ccc(O)cc1)C(=O)N[C@@H](CCCCN)C(N)=O)C(C)C)C(C)C)C(C)C [NCR169C17–38C12,17/S-20W^5-F-L] (H-KSKKPLFKIWKSVENVSVL[Trp(5-F)]YK-NH2; N-terminus assumed)",3.1,3.1,3.1,3.1,,1.6,3.1,6.3,3.1,
"CC[C@H](C)[C@H](NC(=O)[C@H](CCCCN)NC(=O)[C@H](Cc1ccccc1)NC(=O)[C@H](CC(C)C)NC(=O)[C@@H]1CCCN1C(=O)[C@H](CCCCN)NC(=O)[C@H](CCCCN)NC(=O)[C@H](CO)NC(=O)[C@@H](N)CCCCN)C(=O)N[C@@H](Cc1c[nH]c2ccccc12)C(=O)N[C@@H](CCCCN)C(=O)N[C@@H](CO)C(=O)N[C@H](C(=O)N[C@@H](CCC(=O)O)C(=O)N[C@@H](CC(N)=O)C(=O)N[C@H](C(=O)N[C@@H](CO)C(=O)N[C@H](C(=O)N[C@@H](CC(C)C)C(=O)NC(Cc1c[nH]c2ccc(C)cc12)C(=O)N[C@@H](Cc1ccc(O)cc1)C(=O)N[C@@H](CCCCN)C(N)=O)C(C)C)C(C)C)C(C)C (some centres unmarked) [NCR169C17–38C12,17/S-20W^5-Me II] (H-KSKKPLFKIWKSVENVSVL[ξTrp(5-Me)]YK-NH2; N-terminus assumed)",3.1,1.6,3.1,3.1,,3.1,,3.1,3.1,25
"CC[C@H](C)[C@H](NC(=O)[C@H](CCCCN)NC(=O)[C@H](Cc1ccccc1)NC(=O)[C@H](CC(C)C)NC(=O)[C@@H]1CCCN1C(=O)[C@H](CCCCN)NC(=O)[C@H](CCCCN)NC(=O)[C@H](CO)NC(=O)[C@@H](N)CCCCN)C(=O)N[C@@H](C)C(=O)N[C@@H](CCCCN)C(=O)N[C@@H](CO)C(=O)N[C@H](C(=O)N[C@@H](CCC(=O)O)C(=O)N[C@@H](CC(N)=O)C(=O)N[C@H](C(=O)N[C@@H](CO)C(=O)N[C@H](C(=O)N[C@@H](CC(C)C)C(=O)N[C@@H](C)C(=O)N[C@@H](Cc1ccc(O)cc1)C(=O)N[C@@H](CCCCN)C(N)=O)C(C)C)C(C)C)C(C)C [NCR169C17–38W10,20/A,C12,17/S] (H-KSKKPLFKIAKSVENVSVLAYK-NH2)",3.1,6.3,6.3,,,6.3,25,3.1,12.5,
"CC[C@H](C)[C@H](NC(=O)[C@H](CCCCN)NC(=O)[C@H](Cc1ccccc1)NC(=O)[C@H](CC(C)C)NC(=O)[C@@H]1CCCN1C(=O)[C@H](CCCCN)NC(=O)[C@H](CCCCN)NC(=O)[C@H](CO)NC(=O)[C@@H](N)CCCCN)C(=O)N[C@@H](C)C(=O)N[C@@H](CCCCN)C(=O)N[C@@H](C)C(=O)N[C@H](C(=O)N[C@@H](CCC(=O)O)C(=O)N[C@@H](CC(N)=O)C(=O)N[C@H](C(=O)N[C@@H](C)C(=O)N[C@H](C(=O)N[C@@H](CC(C)C)C(=O)N[C@@H](C)C(=O)N[C@@H](Cc1ccc(O)cc1)C(=O)N[C@@H](CCCCN)C(N)=O)C(C)C)C(C)C)C(C)C [NCR169C17–38W10,20C12,17/A] (H-KSKKPLFKIAKAVENVAVLAYK-NH2)",,6.3,6.3,,,6.3,,3.1,12.5,
